pEC50, pIC50: −log10 of the molar value. Active and inactive are the calls of the source. The calls are words filed in the database; no cut-off is given here. Square brackets hold non-standard residues; d marks the D form. Peptide text beside a SMILES is read from it. Pro(4-sila,4,4-Me2) = C[Si]1(C)CN[C@H](C(=O)O)C1; Ala(SiMe3) = C[Si](C)(C)C[C@H](N)C(=O)O; NMeR = CN[C@@H](CCCNC(=N)N)C(=O)O; hLys = NCCCCC[C@H](N)C(=O)O
Experiments:
Rattus norvegicus [1] = test: Reduction in arterial blood pressure in Sprague-Dawley rat at 0.1 mg/kg, iv measured over 4 mins; assay type: functional
[2] = Half life in rat plasma at 0.156 mM by UPLC/MS method; assay type: ADME, cell-free
[3] = target: Neurotensin receptor type 1 (Rattus norvegicus, UniProt P20789); test: Agonist activity at […] NTS1 in Sprague-Dawley rat ileum assessed as inhibition of carbachol-induced contraction; assay type: tissue-based
Rattus norvegicus [4] = test: Reduction in arterial blood pressure in Sprague-Dawley rat assessed as sustained and pronounced hypotensive phase at 0.1 mg/kg, iv measured over 4 mins; assay type: functional, organism-based
[5] = target: T1, Neurotensin receptor type 1 (Homo sapiens, UniProt P30989); test: Agonist activity at human NTS1 receptor expressed in CHOK1 cells co-expressing hNTS1-GFP10/RlucII-beta-arrestin 2 assessed as beta-arrestin2 recruitment incubated for 15 mins by BRET assay; assay type: cell-based, CHO-K1
Rattus norvegicus [6] = test: Analgesic activity in Sprague-Dawley rat model of formalin-induced persistent tonic pain model assessed as reduction in weighted pain score during inflammatory phase at 30 ug/kg, it by formalin test; assay type: functional, organism-based
[7] = target: Neurotensin receptor type 2 (Homo sapiens, UniProt O95665); test: Displacement of [125I]-Tyr3-NT from human NTS2 receptor expressed in 1321N1 cell membranes incubated for 30 mins by gamma-counting based competitive radioligand binding assay
[8] = target: T1, Neurotensin receptor type 1; test: Displacement of [125I]-Tyr3-NT from human NTS1 receptor expressed in CHOK1 cell membranes incubated for 30 mins by gamma-counting based competitive radioligand binding assay; parameters: species or system CHO-K1
Rattus norvegicus [9] = test: Analgesic activity in Sprague-Dawley rat model of formalin-induced persistent tonic pain model assessed as reduction in weighted pain score during acute phase at 30 ug/kg, it by formalin test; assay type: functional, organism-based
Rattus norvegicus [10] = test: Analgesic activity in Sprague-Dawley rat assessed as increase in response latency to thermal noxious stimulus at 30 ug/kg, it measured every 10 mins for up to 1 hr post dose by tail immersion test; assay type: functional, organism-based
Rattus norvegicus [11] = test: Analgesic activity in Sprague-Dawley rat assessed as maximal possible effect for reduction in sensitivity to heat stimulation at 30 ug/kg, it measured every 10 mins for up to 1 hr post dose by tail immersion test; assay type: functional; parameters: scale not given: the % may be the effect or the level left
[12] = target: T1, Neurotensin receptor type 1; test: Agonist activity at human NTS1 receptor expressed in CHOK1 cells co-expressing Galphaq-RlucII(121)/Gbeta1/GFP10-Ggamma1 assessed as Galpha-q stimulation incubated for 15 mins by BRET assay; assay type: cell-based, CHO-K1
Rattus norvegicus [13] = test: Reduction in arterial blood pressure in Sprague-Dawley rat assessed as hypotensive effect during pressor phase returning to baseline saline values within <1 mins at 0.1 mg/kg, iv measured over 4 mins; assay type: functional, organism-based
Rattus norvegicus [14] = species: Rattus norvegicus; test: Analgesic activity in rat by tail flick test; assay type: functional

Neurotensin receptor type 1 (Rattus norvegicus, UniProt P20789), sequence (P20789 whole entry): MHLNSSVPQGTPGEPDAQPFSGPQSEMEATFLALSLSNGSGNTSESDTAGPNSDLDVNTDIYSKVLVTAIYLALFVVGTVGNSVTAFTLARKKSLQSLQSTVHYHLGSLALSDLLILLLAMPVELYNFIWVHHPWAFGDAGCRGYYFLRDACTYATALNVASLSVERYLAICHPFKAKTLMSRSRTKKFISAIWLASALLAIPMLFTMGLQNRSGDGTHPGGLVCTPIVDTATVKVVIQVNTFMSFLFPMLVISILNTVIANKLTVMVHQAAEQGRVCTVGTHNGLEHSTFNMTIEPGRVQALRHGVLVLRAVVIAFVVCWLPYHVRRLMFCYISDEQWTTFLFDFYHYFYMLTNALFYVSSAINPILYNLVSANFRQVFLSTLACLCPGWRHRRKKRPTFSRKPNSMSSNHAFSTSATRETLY
Neurotensin receptor type 2, sequence (O95665 whole entry): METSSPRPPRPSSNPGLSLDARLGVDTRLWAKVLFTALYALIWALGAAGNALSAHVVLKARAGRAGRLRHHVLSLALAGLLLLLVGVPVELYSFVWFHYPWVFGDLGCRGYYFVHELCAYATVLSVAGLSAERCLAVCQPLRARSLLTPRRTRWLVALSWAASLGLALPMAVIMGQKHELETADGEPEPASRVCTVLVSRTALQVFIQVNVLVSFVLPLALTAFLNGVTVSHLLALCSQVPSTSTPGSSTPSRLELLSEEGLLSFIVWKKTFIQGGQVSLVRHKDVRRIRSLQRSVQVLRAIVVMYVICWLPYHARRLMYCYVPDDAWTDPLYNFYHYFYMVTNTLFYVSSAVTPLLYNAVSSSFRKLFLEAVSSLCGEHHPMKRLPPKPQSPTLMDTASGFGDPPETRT
T1 sequence (P30989 whole entry): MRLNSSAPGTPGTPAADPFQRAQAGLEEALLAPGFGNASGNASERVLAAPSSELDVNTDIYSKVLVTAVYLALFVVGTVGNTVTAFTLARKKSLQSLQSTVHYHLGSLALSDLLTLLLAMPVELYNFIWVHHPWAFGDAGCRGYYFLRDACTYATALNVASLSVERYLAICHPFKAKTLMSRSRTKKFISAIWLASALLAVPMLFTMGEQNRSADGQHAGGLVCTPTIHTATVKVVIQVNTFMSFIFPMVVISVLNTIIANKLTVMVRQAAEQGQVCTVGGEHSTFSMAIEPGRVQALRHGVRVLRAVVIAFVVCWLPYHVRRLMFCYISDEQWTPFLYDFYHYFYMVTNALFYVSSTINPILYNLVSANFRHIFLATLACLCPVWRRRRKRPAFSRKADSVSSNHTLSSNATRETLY

Row | Compound | half-life at 156 µM [2] [min] | pEC50 [3] | pEC50 [5] | pIC50 [7] | pIC50 [8] | pEC50 [12] | ED50 (Rattus norvegicus [14]) [nmol] | other results
1 | CC[C@H](C)[C@H](NC(=O)[C@H](Cc1ccc(O)cc1)NC(=O)[C@@H]1CCCN1C(=O)[C@H](CCCNC(=N)N)NC(=O)[C@@H](N)CCCNC(=N)N)C(=O)N[C@@H](CC(C)C)C(=O)O | 1.95 |  |  |  |  |  |  | Activity (Rattus norvegicus [1]): 30 mmHg
2 | CC[C@H](C)[C@H](NC(=O)[C@H](Cc1ccc(O)cc1)NC(=O)[C@@H]1CCCN1C(=O)[C@H](CCCCN)NC(=O)[C@@H](N)CCCCN)C(=O)N[C@@H](C[Si](C)(C)C)C(=O)O (H-KKPYI[Ala(SiMe3)]-OH) | 1.33 | 8.85 | 8.83 | 9.59 | 10.70 | 8.82 |  | Activity (Rattus norvegicus [1]): Active; Activity (Rattus norvegicus [4]): Active; Activity (Rattus norvegicus [6]): Active; Activity (Rattus norvegicus [9]): Active; Activity (Rattus norvegicus [10]): Active; Activity (Rattus norvegicus [11]): 40%; Activity (Rattus norvegicus [13]): Active
3 | CC(C)C[C@H](NC(=O)[C@H](C[Si](C)(C)C)NC(=O)[C@H](Cc1ccc(O)cc1)NC(=O)[C@@H]1CCCN1C(=O)[C@H](CCCCN)NC(=O)[C@@H](N)CCCCN)C(=O)O (H-KKPY[Ala(SiMe3)]L-OH) | 2.4 | < 5.00 | 7.58 | 6.39 | 7.03 | 6.77 |  | 
4 | C[Si](C)(C)C[C@H](NC(=O)[C@H](C[Si](C)(C)C)NC(=O)[C@H](Cc1ccc(O)cc1)NC(=O)[C@@H]1CCCN1C(=O)[C@H](CCCCN)NC(=O)[C@@H](N)CCCCN)C(=O)O (H-KKPY[Ala(SiMe3)][Ala(SiMe3)]-OH) | 2.83 | 7.65 | 9.47 | 7.54 | 7.81 | 7.96 |  | 
5 | CN[C@@H](CCCNC(=N)N)C(=O)N[C@@H](CCCCN)C(=O)N1CCC[C@H]1C(=O)N[C@@H](Cc1ccc(O)cc1)C(=O)N[C@@H](C[Si](C)(C)C)C(=O)N[C@@H](CC(C)C)C(=O)O (H-[NMeR]KPY[Ala(SiMe3)]L-OH) | > 120 | < 5.00 | 8.38 | 7.53 | 6.61 | 6.69 |  | 
6 | CC(C)C[C@H](NC(=O)[C@H](C[Si](C)(C)C)NC(=O)[C@H](Cc1ccc(O)cc1)NC(=O)[C@@H]1C[Si](C)(C)CN1C(=O)[C@H](CCCCN)NC(=O)[C@@H](N)CCCCCN)C(=O)O (H-[hLys]K[Pro(4-sila,4,4-Me2)]Y[Ala(SiMe3)]L-OH) | 3.52 | < 5.00 | < 6.00 | 5.85 | 6.01 | < 5.00 |  | 
7 | CO[C@@]12CC[C@@]3(C[C@@H]1[C@](C)(O)C(C)(C)C)[C@H]1Cc4ccc(O)c5c4[C@@]3(CCN1CC1CC1)[C@H]2O5 [BUPRENORPHINE] |  |  |  |  |  |  | 4 | 
8 | CN1CC[C@]23c4c5ccc(O)c4O[C@H]2C(=O)CC[C@H]3[C@H]1C5 [HYDROMORPHONE] |  |  |  |  |  |  | 78 | 
9 | CN1CC[C@]23c4c5ccc(O)c4O[C@H]2[C@@H](O)C=C[C@H]3[C@H]1C5 [MORPHINE] |  |  |  |  |  |  | 7.4 | 

Source: ChEMBL document CHEMBL3621076, “Synthesis and Characterization in Vitro and in Vivo of (l)-(Trimethylsilyl)alanine Containing Neurotensin Analogues” (J Med Chem, 2015)
